SMILES strings stand for the structures. Like-named read-outs stand apart in the source and are kept apart here.

Test [1] relates to 3D7 strain of Plasmodium falciparum. Put plainly: Potency in the 3D7 strain of Plasmodium falciparum (EC50). To be noted: Plasmodium falciparum. Type of test: cell-based.
Test [2] concerns DHODH deficient Pf Dd2 mutant. The test is described as follows: P. falciparum (Dd2 strain) asexual blood stage assay, DHODH deficient mutant. Type of test: cell-based, Plasmodium falciparum. The note with it: for IC50: Plasmodium falciparum, DD2, 72 h, read-out: DHODH deficient Pf Dd2 mutant IC50 (uM). How it is done:
(§1) Assays using human blood cells infected with Plasmodium falciparum: (Pf) parasites, both wild-type strains as well as mutant drug-resistant strains, were performed as described below. Wild-type strains used were aatB Pf (Dd2 strain) and Pf (Dd2 strain). Mutant strains used were proguanil resistant attb Pf (Dd2 strain), dihydroorotate dehydrogenase (DHODH) deficient aatB Pf (Dd2 strain), and DHODH deficient and proguanil resistant Pf (Dd2 strain).
(§2) 2008 Jul. 1; 105(26):9059-64.
(§3) Parasitemia was estimated by blood smear Giemsa stain and visual inspection under the microscopic.
The screening plate was prepared by centrifuging for parasite culture for 5 min at 800×g at RT (low brake) and removing supernatant. A parasite suspension was prepared with 0.3% parasitemia and 4% hematocrit in screening medium (SM). The suspension was gassed with a gas mixture of 1% oxygen, 3% carbon dioxide, 96% nitrogen and stored at 37° C. for until ready to use. 50 nl of 1 mM compound in DMSO was prespotted into 1536 well plates (final drug conc. of 12.5 μM, final DMSO conc. of 0.625%) with the acoustic dispenser ATS. Controls were Artemisinin, Chloroquine, and DMSO. 8 μl of SM was dispensed into 1,536-well, black, clear-bottom plates (Greiner) using the MultiFlo™ Microplate dispenser (BioTek) (final parasitemia of 0.3% and 2.5% hematocrit in SM). The plates were incubated at 37° C. for 72 h with water-soaked tissue in a closed ziploc bag gassed with 1% oxygen, 3% carbon dioxide, 96% nitrogen.
(§4) 2 μl of detection reagent mixture (10×SYBR Green I (Invitrogen) in Lysis buffer (20 mM Tris/HCl, 5 mM EDTA, 0.16% Saponin wt/vol, 1.6% Triton X vol/vol) was added. Assay plates were read from the bottom by using the 2104 EnVision® Multilabel Reader (PerkinElmer) (485 nm excitation, 530 nm emission). The results are presented in Table 5 below.

In another test the test system is Pf Dd2. Put plainly: P. falciparum (Dd2 strain) asexual blood stage assay, Pf Dd2. Type of test: cell-based. To be noted: Plasmodium falciparum, DD2, 72 h, read-out: Pf Dd2 IC50 (uM). On the procedure:
as §1, §2, §3
The screening plate was prepared by centrifuging for parasite culture for 5 min at 800×g at RT (low brake) and removing supernatant. A parasite suspension was prepared with 0.3% parasitemia and 4% hematocrit in screening medium (SM). The suspension was gassed with a gas mixture of 1% oxygen, 3% carbon dioxide, 96% nitrogen and stored at 37° C. for until ready to use. […]
as §4

[3] abbreviates: 3D7, read-out: 3D7 Mean EC50 (μM).

The term EC50 denotes the concentration at which the effect is half-maximal. For orientation: IC50 means the concentration needed to halve the response being measured. Turning to `O=C(Nc1ccc(F)c(F)c1)c1c2c(nc3ccccc13)CCN(Cc1ccccc1)C2` [Compound 66, 2-Benzyl-N-(3,4-difluorophenyl)-1,2,3,4-tetrahydrobenzo[b][1,6]naphthyridine-10-carboxamide], the EC50 is 0.0204 µM in test [1] (3D7, read-out: 3D7 EC50) and above 3.49 µM in test [1] (setting [3]). Also, the IC50 in test [2] was determined as 0.0301 µM; with Pf Dd2, 0.302 µM.

In the case of `O=C1c2c3c(nc4ccccc24)CCN(Cc2ccccc2)C3N1c1ccc(F)c(F)c1` (centres unmarked) [Compound 177, 3-Benzyl-2-(3,4-difluorophenyl)-2a,3,4,5-tetrahydrobenzo[b]pyrrolo[4,3,2-de][1,6]naphthyridin-1(2H)-one], the EC50 in test [1] (setting [3]) worked out at 0.00328 ± 0.000533 µM. In addition, the results for the half-maximal inhibitory concentration (IC50) (in test [2]; with Pf Dd2) were 0.006 µM and 0.0063 µM, respectively. In addition, the “potency against a dihydroorotate dehydrogenase (DHODH) deficient mutant” value in test [2] (in words) is given as “undiminished potency”.
